Experimental data published in patent US7582678B2, “Use of branched-chain fatty acids and derivatives thereof for the treatment of pain” (D-PHARM Limited, priority 1998, dated 2009).
Marks after values point to notes of the source that are not given here.

Legend:
Male CD-1 mice = assay: Tail flick assay (radiated heat, acute pain) in mice; conditions: for size of analgesic effect, ranking among tested compounds: tail flick, Table 1;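 on all read-outs here: infrared heat aimed at the tail of restrained mice, time until tail flick recorded as mean of 2-3 readings, 4-8 animals per group, compared with vehicle-treated animals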
[1] = I.P., 50 mg/kg, 15 min post-injection
[2] = I.P., 50 mg/kg, 45 min post-injection
[3] = I.P., 50 mg/kg, 75 min post-injection
[4] = I.P., 50 mg/kg, 105 min post-injection
[5] = I.P., 50 mg/kg, 135 min post-injection
[6] = I.P., 100 mg/kg, 15 min post-injection
[7] = I.P., 100 mg/kg, 45 min post-injection
[8] = I.P., 100 mg/kg, 75 min post-injection
[9] = I.P., 100 mg/kg, 105 min post-injection
[10] = I.P., 100 mg/kg, 135 min post-injection
[11] = I.P., 200 mg/kg, 15 min post-injection
[12] = I.P., 200 mg/kg, 45 min post-injection
[13] = I.P., 200 mg/kg, 75 min post-injection
[14] = I.P., 200 mg/kg, 105 min post-injection
[15] = I.P., 200 mg/kg, 135 min post-injection
[16] = I.P., 50 mg/kg, 285 min post-injection
[17] = I.P., 50 mg/kg, 345 min post-injection
[18] = I.P., 100 mg/kg, 285 min post-injection
[19] = I.P., 100 mg/kg, 345 min post-injection

In the case of `CCCCCCCCCCC(CCC)C(=O)O` (stereo not shown) [M(3,10)—Na, 2-Propyldodecanoic acid], the “Withdrawal latency (% of vehicle)” value (Male CD-1 mice; [1]) is reported as 151% of vehicle, the “Withdrawal latency (% of vehicle)” value (Male CD-1 mice; [2]) is reported as 138% of vehicle and the “Withdrawal latency (% of vehicle)” value (Male CD-1 mice; [3]) is reported as 128% of vehicle. The “Withdrawal latency (% of vehicle)” value (Male CD-1 mice; [4]) was 123% of vehicle, the “Withdrawal latency (% of vehicle)” value (Male CD-1 mice; [5]) was 102% of vehicle and the “Withdrawal latency (% of vehicle)” value (Male CD-1 mice; [6]) was 181% of vehicle. For the same compound, the “Withdrawal latency (% of vehicle)” value (Male CD-1 mice; [7]) was 153% of vehicle, the “Withdrawal latency (% of vehicle)” value (Male CD-1 mice; [8]) was 121% of vehicle and the “Withdrawal latency (% of vehicle)” value (Male CD-1 mice; [9]) was 143% of vehicle. For the same compound, the “Withdrawal latency (% of vehicle)” value (Male CD-1 mice; [10]) was 148% of vehicle, the “Withdrawal latency (% of vehicle)” value (Male CD-1 mice; [11]) was 158% of vehicle and the “Withdrawal latency (% of vehicle)” value (Male CD-1 mice; [12]) was 220% of vehicle. The “Withdrawal latency (% of vehicle)” value (Male CD-1 mice; [13]) was 216% of vehicle, the “Withdrawal latency (% of vehicle)” value (Male CD-1 mice; [14]) was 141% of vehicle and the “Withdrawal latency (% of vehicle)” value (Male CD-1 mice; [15]) was 175% of vehicle.
With `CCCCCCCC(CCC)C(=O)O` (stereo not shown) [M(3,7), 2-Propylnonanoic acid] the “Withdrawal latency (% of vehicle)” value (Male CD-1 mice; I.P., 150 mg/kg, 15 min post-injection) was 157% of vehicle, the “Withdrawal latency (% of vehicle)” value (Male CD-1 mice; I.P., 150 mg/kg, 45 min post-injection) was 137% of vehicle and the “Withdrawal latency (% of vehicle)” value (Male CD-1 mice; I.P., 150 mg/kg, 75 min post-injection) was 106% of vehicle. For the same compound, the “Withdrawal latency (% of vehicle)” value (Male CD-1 mice; I.P., 150 mg/kg, 105 min post-injection) was 131% of vehicle.
In the case of `CCCCCCCC(CCCCCCC)OP(=O)(O)O` [(7,7)-PO4, 8-Pentadecanyl Phosphate], the “Withdrawal latency (% of vehicle)” value (Male CD-1 mice; P.O., 200 mg/kg, 45 min post-administration) is reported as 93% of vehicle, the “Withdrawal latency (% of vehicle)” value (Male CD-1 mice; P.O., 200 mg/kg, 75 min post-administration) is reported as 94% of vehicle and the “Withdrawal latency (% of vehicle)” value (Male CD-1 mice; P.O., 200 mg/kg, 105 min post-administration) is reported as 124% of vehicle. For the same compound, the “Withdrawal latency (% of vehicle)” value (Male CD-1 mice; P.O., 200 mg/kg, 135 min post-administration) was 133% of vehicle, the “Withdrawal latency (% of vehicle)” value (Male CD-1 mice; P.O., 200 mg/kg, 285 min post-administration) was 162% of vehicle and the “Withdrawal latency (% of vehicle)” value (Male CD-1 mice; P.O., 200 mg/kg, 345 min post-administration) was 129% of vehicle.
In the case of `CCCCCCCCCCCCCCCCCC(=O)OC[C@H](COP(=O)([O-])OCC[N+](C)(C)C)OC(=O)C(CCC)CCCCCCC` (stereo partly shown) [DP-M(3,7), 1-O-stearoyl-2-propylnonayl-sn-glycero-3-phosphocholine], the “Withdrawal latency (% of vehicle)” value (Male CD-1 mice; [1]) is reported as 132% of vehicle, the “Withdrawal latency (% of vehicle)” value (Male CD-1 mice; [2]) is reported as 123% of vehicle and the “Withdrawal latency (% of vehicle)” value (Male CD-1 mice; [3]) is reported as 119% of vehicle. The “Withdrawal latency (% of vehicle)” value (Male CD-1 mice; [4]) was 102% of vehicle, the “Withdrawal latency (% of vehicle)” value (Male CD-1 mice; [5]) was 112% of vehicle and the “Withdrawal latency (% of vehicle)” value (Male CD-1 mice; [16]) was 119% of vehicle. The “Withdrawal latency (% of vehicle)” value (Male CD-1 mice; [17]) was 114% of vehicle, the “Withdrawal latency (% of vehicle)” value (Male CD-1 mice; [6]) was 127% of vehicle and the “Withdrawal latency (% of vehicle)” value (Male CD-1 mice; [7]) was 156% of vehicle. For the same compound, the “Withdrawal latency (% of vehicle)” value (Male CD-1 mice; [8]) was 124% of vehicle, the “Withdrawal latency (% of vehicle)” value (Male CD-1 mice; [9]) was 114% of vehicle and the “Withdrawal latency (% of vehicle)” value (Male CD-1 mice; [10]) was 126% of vehicle. The “Withdrawal latency (% of vehicle)” value (Male CD-1 mice; [18]) was 127% of vehicle and the “Withdrawal latency (% of vehicle)” value (Male CD-1 mice; [19]) was 125% of vehicle.
With `CCCCCC(CCCCC)C(=O)O` [M(5,5), 2-Pentylheptanoic acid] the “Withdrawal latency (% of vehicle)” value (Male CD-1 mice; [11]) was 161% of vehicle, the “Withdrawal latency (% of vehicle)” value (Male CD-1 mice; [12]) was 135% of vehicle and the “Withdrawal latency (% of vehicle)” value (Male CD-1 mice; [13]) was 145% of vehicle. The “Withdrawal latency (% of vehicle)” value (Male CD-1 mice; [14]) was 158% of vehicle and the “size of analgesic effect, ranking among tested compounds” value (“size of analgesic effect” below) (Male CD-1 mice) was “largest analgesic effects”.
In the case of `CCCCCCCC(CCCCCCC)C(=O)O` [M(7,7), 2-Heptylnonanoic acid], the “Withdrawal latency (% of vehicle)” value (Male CD-1 mice; [11]) is reported as 93% of vehicle, the “Withdrawal latency (% of vehicle)” value (Male CD-1 mice; [12]) is reported as 124% of vehicle and the “Withdrawal latency (% of vehicle)” value (Male CD-1 mice; [13]) is reported as 117% of vehicle. For the same compound, the “Withdrawal latency (% of vehicle)” value (Male CD-1 mice; [14]) was 149% of vehicle and the “Withdrawal latency (% of vehicle)” value (Male CD-1 mice; [15]) was 124% of vehicle.
With `CN1CC[C@]23c4c5ccc(O)c4O[C@H]2[C@@H](O)C=C[C@H]3[C@H]1C5` [Morphine, reference compound] the “Withdrawal latency (% of vehicle)” value (Male CD-1 mice; I.P., 1 mg/kg, 15 min post-injection) was 97% of vehicle, the “Withdrawal latency (% of vehicle)” value (Male CD-1 mice; I.P., 1 mg/kg, 45 min post-injection) was 136% of vehicle and the “Withdrawal latency (% of vehicle)” value (Male CD-1 mice; I.P., 1 mg/kg, 75 min post-injection) was 207% of vehicle. The “Withdrawal latency (% of vehicle)” value (Male CD-1 mice; I.P., 1 mg/kg, 105 min post-injection) was 179% of vehicle, the “Withdrawal latency (% of vehicle)” value (Male CD-1 mice; I.P., 1 mg/kg, 255 min post-injection) was 142%** % of vehicle and the “Withdrawal latency (% of vehicle)” value (Male CD-1 mice; I.P., 10 mg/kg, 15 min post-injection) was 139% of vehicle. For the same compound, the “Withdrawal latency (% of vehicle)” value (Male CD-1 mice; I.P., 10 mg/kg, 45 min post-injection) was 171% of vehicle, the “Withdrawal latency (% of vehicle)” value (Male CD-1 mice; I.P., 10 mg/kg, 75 min post-injection) was 284% of vehicle and the “Withdrawal latency (% of vehicle)” value (Male CD-1 mice; I.P., 10 mg/kg, 105 min post-injection) was 238% of vehicle. For the same compound, the “Withdrawal latency (% of vehicle)” value (Male CD-1 mice; I.P., 10 mg/kg, 255 min post-injection) was 151%** % of vehicle.
For `CCCCCC(CCCCC)C(=O)O` [M(5,5)—Na, 2-Pentylheptanoic acid], the “Withdrawal latency (% of vehicle)” value (Male CD-1 mice; [1]) was 115% of vehicle, the “Withdrawal latency (% of vehicle)” value (Male CD-1 mice; [2]) was 124% of vehicle and the “Withdrawal latency (% of vehicle)” value (Male CD-1 mice; [3]) was 117% of vehicle. The “Withdrawal latency (% of vehicle)” value (Male CD-1 mice; [4]) was 134% of vehicle, the “Withdrawal latency (% of vehicle)” value (Male CD-1 mice; [6]) was 137% of vehicle and the “Withdrawal latency (% of vehicle)” value (Male CD-1 mice; [7]) was 164% of vehicle. The “Withdrawal latency (% of vehicle)” value (Male CD-1 mice; [8]) was 164% of vehicle and the “Withdrawal latency (% of vehicle)” value (Male CD-1 mice; [9]) was 193% of vehicle.
With `CCCCCCCCCCCCCCCCCC(=O)OC[C@H](COP(=O)([O-])OCC[N+](C)(C)C)OC(=O)C(CCCCC)CCCCC` [DP-M(5,5), 1-O-stearoyl-2-pentylheptonayl-sn-glycero-3-phosphocholine] the “Withdrawal latency (% of vehicle)” value (Male CD-1 mice; [1]) was 113% of vehicle, the “Withdrawal latency (% of vehicle)” value (Male CD-1 mice; [2]) was 107% of vehicle and the “Withdrawal latency (% of vehicle)” value (Male CD-1 mice; [3]) was 118% of vehicle. For the same compound, the “Withdrawal latency (% of vehicle)” value (Male CD-1 mice; [4]) was 142% of vehicle, the “Withdrawal latency (% of vehicle)” value (Male CD-1 mice; [5]) was 152% of vehicle and the “Withdrawal latency (% of vehicle)” value (Male CD-1 mice; [16]) was 121% of vehicle. For the same compound, the “Withdrawal latency (% of vehicle)” value (Male CD-1 mice; [17]) was 124% of vehicle, the “Withdrawal latency (% of vehicle)” value (Male CD-1 mice; [6]) was 148% of vehicle and the “Withdrawal latency (% of vehicle)” value (Male CD-1 mice; [7]) was 143% of vehicle. For the same compound, the “Withdrawal latency (% of vehicle)” value (Male CD-1 mice; [8]) was 148% of vehicle, the “Withdrawal latency (% of vehicle)” value (Male CD-1 mice; [9]) was 162% of vehicle and the “Withdrawal latency (% of vehicle)” value (Male CD-1 mice; [10]) was 171% of vehicle. For the same compound, the “Withdrawal latency (% of vehicle)” value (Male CD-1 mice; [18]) was 155% of vehicle, the “Withdrawal latency (% of vehicle)” value (Male CD-1 mice; [19]) was 124% of vehicle and the “dose dependence of analgesic effect” value (Male CD-1 mice; i.p. 25, 50, 100 mg/kg (FIG. 1)) was “dose dependent”. For the same compound, the “size of analgesic effect” value (Male CD-1 mice) was “largest analgesic effects”.
With `CCCCCCCCCCC(CCC)C(=O)O` (stereo not shown) [M(3,10), 2-Propyldodecanoic acid] the “Withdrawal latency (% of vehicle)” value (Male CD-1 mice; [6]) was 142% of vehicle, the “Withdrawal latency (% of vehicle)” value (Male CD-1 mice; [7]) was 155% of vehicle and the “Withdrawal latency (% of vehicle)” value (Male CD-1 mice; [8]) was 131% of vehicle. The “Withdrawal latency (% of vehicle)” value (Male CD-1 mice; [9]) was 156% of vehicle, the “Withdrawal latency (% of vehicle)” value (Male CD-1 mice; [10]) was 123% of vehicle and the “Withdrawal latency (% of vehicle)” value (Male CD-1 mice; [11]) was 186% of vehicle. The “Withdrawal latency (% of vehicle)” value (Male CD-1 mice; [12]) was 210% of vehicle, the “Withdrawal latency (% of vehicle)” value (Male CD-1 mice; [14]) was 183% of vehicle and the “size of analgesic effect” value (Male CD-1 mice) was “largest analgesic effects”.
In the case of `CCCCCCCCCCCCCCCCCC(=O)OC[C@H](COP(=O)([O-])OCC[N+](C)(C)C)OC(=O)C(CCC)CCCCCCCCCC` (stereo partly shown) [DP-M(3,10), 1-O-stearoyl-2-propyldodecanoyl-sn-glycero-3-phosphocholine], the “Withdrawal latency (% of vehicle)” value (Male CD-1 mice; [1]) is reported as 123% of vehicle, the “Withdrawal latency (% of vehicle)” value (Male CD-1 mice; [2]) is reported as 119% of vehicle and the “Withdrawal latency (% of vehicle)” value (Male CD-1 mice; [3]) is reported as 113% of vehicle. For the same compound, the “Withdrawal latency (% of vehicle)” value (Male CD-1 mice; [4]) was 123% of vehicle, the “Withdrawal latency (% of vehicle)” value (Male CD-1 mice; [5]) was 123% of vehicle and the “Withdrawal latency (% of vehicle)” value (Male CD-1 mice; [16]) was 129% of vehicle. The “Withdrawal latency (% of vehicle)” value (Male CD-1 mice; [17]) was 107% of vehicle.
Work on `CCCCCCCCCCCCCCCCCCC(CCC)C(=O)O` (stereo not shown) [M(3,18), 2-Propyleicosanoic acid] yielded a melting point of 55.6 to 57.4 °C.
